# Experimental data from patent US8501755B2, “Tetrahydropyridothienopyrimidine compounds and methods of use thereof” (Bayer Intellectual Property GmbH, priority 2006, dated 2013).
# What was measured:
# Type in all cases: cell-based
# [1] = test system: A431 cells; test: In vitro tumor cell proliferation assay (Cell Titer-Glo) in A431 cells; settings: Homo sapiens, A-431, 72 h, A431 human epidermoid carcinoma overexpressing HER1; 72 hours exposure; read-out: IC50, activities in A431 cell lines
# In short: (§1)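 Viability after 72 h drug exposure at 37 °C was read as CellTiter-Glo ATP luminescence, giving IC50. Cells (2.5×10^3/well, RPMI + 10% FBS) were compound-treated one day post-seeding, 0.1% DMSO final: A431 overexpresses HER1, N87 overexpresses HER2 and HER1.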
# [2] = test system: N87; test: In vitro tumor cell proliferation assay (Cell Titer-Glo) in N87 cells; settings: N87 human gastric carcinoma overexpressing HER2 and HER1; 72 hours exposure; read-out: IC50, activities in N87 cell lines
# In short: as §1
# [3] = test system: H1975 cells; test: In vitro tumor cell proliferation assay (Cell Titer-Glo) in H1975 cells; settings: NCI-H1975; H1975 human NSCLC expressing mutant HER1 (L858R,T790M); 72 hours exposure; read-out: IC50, activities in H 1975 cell lines
# In short: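 After 72 h compound exposure at 37° C (top 10 uM down to 64 pM, 0.1% DMSO), viability of EGFR L858R/T790M-mutant H1975 cells was read as ATP luminescence.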
SMILES,IC50 [1] [nM],IC50 [2] [nM],IC50 [3] [nM]
"O=C(/C=C/CN1CCCCC1)N1CCc2c(sc3ncnc(Nc4ccc5c(cnn5Cc5ccccc5)c4)c23)C1 [Example 104, N-(1-benzyl-1H-indazol-5-yl)-7-[(2E)-4-piperidin-1-ylbut-2-enoyl]-5,6,7,8-tetrahydropyrido [4′,3′:4,5]thieno[2,3-d]pyrimidin-4-amine]",200 to 1000,< 200,200 to 1000
"CC(C)N(C)C/C=C/C(=O)N1CCc2c(sc3ncnc(Nc4ccc5c(cnn5Cc5ccccc5)c4)c23)C1 [Example 107, N-(1-benzyl-1H-indazol-5-yl)-7-{(2E)-4-[isopropyl(methyl)amino]but-2-enoyl}-5,6,7,8-tetrahydropyrido [4′,3′:4,5]thieno[2,3-d]pyrimidin-4-amine]",< 200,< 200,< 200
"CN(C)C/C=C/C(=O)N1CCc2c(sc3ncnc(Nc4ccc5c(cnn5Cc5ccccn5)c4)c23)C1 [Example 109, 7-[(2E)-4-(dimethylamino)but-2-enoyl]-N-[1-(pyridin-2-ylmethyl)-1H-indazol-5-yl]-5,6,7,8-tetrahydropyrido [4′,3′:4,5]thieno[2,3-d]pyrimidin-4-amine]",200 to 1000,< 200,200 to 1000
"CCN(CC)C/C=C/C(=O)N1CCc2c(sc3ncnc(Nc4ccc5c(cnn5Cc5ccccn5)c4)c23)C1 [Example 111, 7-[(2E)-4-(diethylamino)but-2-enoyl]-N-[1-(pyridin-2-ylmethyl)-1H-indazol-5-yl]-5,6,7,8-tetrahydropyrido [4′,3′:4,5]thieno[2,3-d]pyrimidin-4-amine]",200 to 1000,< 200,200 to 1000
"O=C(/C=C/CN1CCCCC1)N1CCc2c(sc3ncnc(Nc4ccc5c(ccn5Cc5ccccn5)c4)c23)C1 [Example 114, 7-[(2E)-4-piperidin-1-ylbut-2-enoyl]-N-[1-(pyridin-2-ylmethyl)-1H-indol-5-yl]-5,6,7,8-tetrahydropyrido [4′,3′:4,5]thieno[2,3-d]pyrimidin-4-amine]",< 200,< 200,< 200
"CC(C)N(C)C/C=C/C(=O)N1CCc2c(sc3ncnc(Nc4ccc5c(cnn5Cc5ccccn5)c4)c23)C1 [Example 116, 7-{(2E)-4-[isopropyl(methyl)amino]but-2-enoyl}-N-[1-(pyridin-2-ylmethyl)-1H-indazol-5-yl]-5,6,7,8-tetrahydropyrido [4′,3′:4,5] thieno[2,3-d]pyrimidin-4-amine]",200 to 1000,< 200,200 to 1000
"CCN(CC)C/C=C/C(=O)N1CCc2c(sc3ncnc(Nc4ccc5c(ccn5Cc5ccccn5)c4)c23)C1 [Example 121, 7-[(2E)-4-(diethylamino)but-2-enoyl]-N-[1-(pyridin-2-ylmethyl)-1H-indol-5-yl]-5,6,7,8-tetrahydropyrido [4′,3′:4,5]thieno[2,3-d]pyrimidin-4-amine]",200 to 1000,< 200,200 to 1000
"CC(C)N(C)C/C=C/C(=O)N1CCc2c(sc3ncnc(Nc4ccc5c(cnn5Cc5cccc(F)c5)c4)c23)C1 [Example 123, N-[1-(3-fluorobenzyl)-1H-indazol-5-yl]-7-{(2E)-4-[isopropyl(methyl)amino]but-2-enoyl}-5,6,7,8-tetrahydropyrido [4′,3′:4,5]thieno[2,3-d]pyrimidin-4-amine]",< 200,< 200,< 200
"CN(C/C=C/C(=O)N1CCc2c(sc3ncnc(Nc4ccc5c(cnn5Cc5ccccc5)c4)c23)C1)C(C)(C)C [Example 126, N-(1-benzyl-1H-indazol-5-yl)-7-{(2E)-4-[tert-butyl(methyl)amino]but-2-enoyl}-5,6,7,8-tetrahydropyrido [4′,3′:4,5]thieno[2,3-d]pyrimidin-4-amine]",< 200,< 200,< 200

# Other lines, results leading:
IC50 [1] [nM],IC50 [2] [nM],IC50 [3] [nM],SMILES
200 to 1000,< 200,1000 to 10000,"O=C(/C=C/CN1CCOCC1)N1CCc2c(sc3ncnc(Nc4ccc5c(cnn5Cc5cccc(F)c5)c4)c23)C1 [Example 102, N-[1-(3-fluorobenzyl)-1H-indazol-5-yl]-7-[(2E)-4-morpholin-4-ylbut-2-enoyl]-5,6,7,8-tetrahydropyrido [4′,3′:4,5]thieno[2,3-d]pyrimidin-4-amine]"
200 to 1000,< 200,1000 to 10000,"O=C(/C=C/CN1CCOCC1)N1CCc2c(sc3ncnc(Nc4ccc5c(cnn5Cc5ccccc5)c4)c23)C1 [Example 103, N-(1-benzyl-1H-indazol-5-yl)-7-[(2E)-4-morpholin-4-ylbut-2-enoyl]-5,6,7,8-tetrahydropyrido [4′,3′:4,5]thieno[2,3-d]pyrimidin-4-amine]"
< 200,< 200,200 to 1000,"O=C(/C=C/CN1CCOCC1)N1CCc2c(sc3ncnc(Nc4ccc5c(ccn5Cc5ccccc5)c4)c23)C1 [Example 105, N-(1-benzyl-1H-indol-5-yl)-7-[(2E)-4-morpholin-4-ylbut-2-enoyl]-5,6,7,8-tetrahydropyrido [4′,3′:4,5]thieno[2,3-d]pyrimidin-4-amine]"
< 200,< 200,200 to 1000,"O=C(/C=C/CN1CCCCC1)N1CCc2c(sc3ncnc(Nc4ccc5c(ccn5Cc5cccc(F)c5)c4)c23)C1 [Example 106, N-[1-(3-fluorobenzyl)-1H-indol-5-yl)-7-[(2E)-4-piperidin-1-ylbut-2-enoyl]-5,6,7,8-tetrahydropyrido [4′,3′:4,5]thieno[2,3-d]pyrimidin-4-amine]"
< 200,< 200,200 to 1000,"O=C(/C=C/CN1CCOCC1)N1CCc2c(sc3ncnc(Nc4ccc5c(ccn5Cc5cccc(F)c5)c4)c23)C1 [Example 108, N-[1-(3-fluorobenzyl)-1H-indol-5-yl]-7-[(2E)-4-morpholin-4-ylbut-2-enoyl]-5,6,7,8-tetrahydropyrido [4′,3′:4,5]thieno[2,3-d]pyrimidin-4-amine]"
200 to 1000,< 200,200 to 1000,"O=C(/C=C/CN1CCCCC1)N1CCc2c(sc3ncnc(Nc4ccc5c(cnn5Cc5ccccn5)c4)c23)C1 [Example 112, 7-[(2E)-4-piperidin-1-ylbut-2-enoy]-N-[1-(pyridin-2-ylmethyl)-1H-indazol-5-yl]-5,6,7,8-tetrahydropyrido [4′,3′:4,5]thieno[2,3-d]pyrimidin-4-amine]"
200 to 1000,< 200,200 to 1000,"O=C(/C=C/CN1CCOCC1)N1CCc2c(sc3ncnc(Nc4ccc5c(cnn5Cc5ccccn5)c4)c23)C1 [Example 113, 7-[(2E)-4-morpholin-4-ylbut-2-enoyl]-N-[1-(pyridin-2-ylmethyl)-1H-indazol-5-yl]-5,6,7,8-tetrahydropyrido [4′,3′:4,5]thieno[2,3-d]pyrimidin-4-amine]"
< 200,< 200,< 200,"CCN(C)C/C=C/C(=O)N1CCc2c(sc3ncnc(Nc4ccc5c(cnn5Cc5cccc(F)c5)c4)c23)C1 [Example 115, 7-{(2E)-4-[ethyl(methyl)amino]but-2-enoyl}-N-[1-(3-fluorobenzyl)-1H-indazol-5-yl]-5,6,7,8-tetrahydropyrido [4′,3′:4,5]thieno[2,3-d]pyrimidin-4-amine]"
200 to 1000,< 200,< 200,"CC(C)N(C)C/C=C/C(=O)N1CCc2c(sc3ncnc(Nc4ccc5c(ccn5Cc5ccccn5)c4)c23)C1 [Example 117, 7-{(2E)-4-[isopropyl(methyl)amino]but-2-enoyl}-N-[1-(pyridin-2-ylmethyl)-1H-indol-5-yl]-5,6,7,8-tetrahydropyrido [4′,3′:4,5]thieno[2,3-d]pyrimidin-4-amine]"
< 200,< 200,< 200,"CC(C)N(C)C/C=C/C(=O)N1CCc2c(sc3ncnc(Nc4ccc5c(ccn5Cc5ccccc5)c4)c23)C1 [Example 118, N-(1-benzyl-1H-indol-5-yl)-7-{(2E)-4-[isopropyl(methyl)amino]but-2-enoyl}-5,6,7,8-tetrahydropyrido [4′,3′:4,5]thieno[2,3-d]pyrimidin-4-amine]"
200 to 1000,< 200,< 200,"CC(C)N(C)C/C=C/C(=O)N1CCc2c(sc3ncnc(Nc4ccc5c(ccn5Cc5cccc(F)c5)c4)c23)C1 [Example 122, N-[1-(3-fluorobenzyl)-1H-indol-5-yl]-7-{(2E)-4-[isopropyl(methyl)amino]but-2-enoyl}-5,6,7,8-tetrahydropyrido [4′,3′:4,5]thieno[2,3-d]pyrimidin-4-amine]"
< 200,< 200,< 200,"CN(C/C=C/C(=O)N1CCc2c(sc3ncnc(Nc4ccc5c(cnn5Cc5cccc(F)c5)c4)c23)C1)C(C)(C)C [Example 124, 7-{(2E)-4-[tert-butyl(methyl)amino]but-2-enoyl}-N-[1-(3-fluorobenzyl)-1H-indazol-5-yl]-5,6,7,8-tetrahydropyrido [4′,3′:4,5]thieno[2,3-d]pyrimidin-4-amine]"
200 to 1000,< 200,200 to 1000,"CN(C/C=C/C(=O)N1CCc2c(sc3ncnc(Nc4ccc5c(ccn5Cc5cccc(F)c5)c4)c23)C1)C(C)(C)C [Example 125, 7-{(2E)-4-[tert-butyl(methyl)amino]but-2-enoyl}-N-[1-(3-fluorobenzyl)-1H-indol-5-yl]-5,6,7,8-tetrahydropyrido [4′,3′:4,5]thieno[2,3-d]pyrimidin-4-amine]"
